Laboratory results from PubChem BioAssay (NCI).
Values after ≈ are worked out from the molar mass of the structure shown.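 A five-concentration, 48-hour dose response in 96-well plates underlies each endpoint, interpolated linearly between surrounding concentrations. GI50 marks 50% less growth. Definition used: TGI = concentration required for complete inhibition of growth.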

Key:
Test in all cases: inhibition of tumour cell growth, NCI panel, 48 h
[1] = test system: UO-31 renal
[2] = test system: RPMI-8226 leukemia
[3] = test system: NCI-H460 lung
[4] = test system: SNB-75 CNS
[5] = test system: IGROV1 ovarian
[6] = test system: EKVX NSCLC
[7] = test system: OVCAR-8 ovarian
[8] = test system: A549 NSCLC
[9] = test system: HOP-92 NSCLC
[10] = test system: SK-OV-3 ovarian
[11] = test system: NCI-H226 lung

Structure (SMILES)	GI50 [1]	TGI [1]	GI50 [2]	TGI [2]	GI50 [3]	TGI [3]	GI50 [4]	TGI [4]	GI50 [5]	TGI [5]	GI50 [6]	TGI [6]	GI50 [7]	TGI [7]	GI50 [8]	TGI [8]	TGI [9] [µM]	TGI [10]	GI50 [10] [µg/mL]	TGI [11] [µM]
c1ccc(-c2c(-c3ccccc3)[n+](Cc3ccc4ccccc4c3)c(-c3ccc(-c4nc5ccccc5s4)cc3)n2Cc2ccc3ccccc3c2)cc1	0.28 µM	0.872 µM	0.0625 µM	0.426 µM	0.231 µM	1.11 µM	0.201 µM	0.895 µM	0.121 µM	0.408 µM	0.187 µM	1.19 µM	0.151 µM	1.12 µM	0.176 µM	1.55 µM				
COC(=O)C(Cc1cn(C(C)n2cc(CC(NC(C)=O)C(=O)OC)c3ccccc32)c2ccccc12)NC(C)=O (stereo unspecified)		> 100 µM		> 100 µM		> 100 µM		83.3 µM		> 100 µM		> 100 µM				> 100 µM	> 100	> 100 µM		
O=C1NN(C2=NNC3(C(=O)N2)c2ccccc2-c2ccccc23)C(c2ccccc2)=N/C1=C/c1ccc(Cl)cc1	48 µg/mL	> 150 µg/mL	63.6 µg/mL	> 150 µg/mL	48.7 µg/mL	> 150 µg/mL	57.2 µg/mL	> 150 µg/mL	60.5 µg/mL	> 150 µg/mL	38.7 µg/mL	108 µg/mL	78.1 µg/mL	> 150 µg/mL	60.2 µg/mL	> 150 µg/mL		> 150 µg/mL	54 (≈ 99.1 µM)	
O=C(O)c1nc2ccc(C(F)(F)F)cc2[nH]c1=O		> 100 µM		> 100 µM		> 100 µM				> 100 µM		> 100 µM		> 100 µM		> 100 µM	> 100	> 100 µM		> 100
CN(/N=C1\C(=O)Nc2ccccc21)c1ccccc1		> 100 µM		> 100 µM		> 100 µM		> 100 µM		> 100 µM		> 100 µM		> 100 µM		> 100 µM	> 100	> 100 µM		> 100
CN(C)CCNC(=O)c1cccc2c1Nc1ccccc1S2		21.8 µM		29.9 µM		25.7 µM		21.3 µM		24.1 µM		18.7 µM		30.2 µM		28.8 µM	8.96	30.5 µM		16.8
CO/N=C1\CC(NC(=O)C(F)(F)F)c2ccsc21 (stereo unspecified)		> 100 µM				> 100 µM		> 100 µM		> 100 µM		> 100 µM		> 100 µM		> 100 µM	> 100	> 100 µM		> 100
CC(=O)NNc1nc(C)c(C(=O)NNC(=O)C(=O)Nc2ccc([N+](=O)[O-])cc2[N+](=O)[O-])s1		> 100 µM		> 100 µM		> 100 µM		> 100 µM		> 100 µM		> 100 µM		> 100 µM		> 100 µM	> 100	> 100 µM		> 100
O=c1oc2ccccc2c(O)c1Cc1ccc(Cc2c(O)c3ccccc3oc2=O)cc1		> 100 µM				> 100 µM		> 100 µM		> 100 µM		> 100 µM		> 100 µM		> 100 µM	> 100	> 100 µM		> 100
